Test results reported in patent US7517881B2, “Triazine derivatives, their preparation and therapeutic application thereof” (Aventis Pharma S.A., priority 2005, dated 2009).

Biological target: T1, nicotinic receptors containing the α7 subunit (Rattus norvegicus, UniProt Q05941)
T1 construct: displace the [^3H]-MLA bond on the rat hippocampus membranes; from tissue; host or cells: hippocampus of female Sprague-Dawley rats (membrane preparation)
Experiment: binding to nicotinic receptors containing the α7 subunit, competition versus [3H]-methyllycaconitine on rat hippocampus membranes
Settings: apparent affinity constant by Cheng and Prusoff, displacement of 5 nM [3H]-MLA, 2 hours at about 20° C.
Experimental: The compounds of the invention were tested for their ability to bind the nicotinic receptors containing the α7 subunit using a test of binding to preparations of rat brain membranes according to the methods described hereunder:
Frozen specimens of hippocampus from the brain of female Sprague-Dawley rats were stored at −20° C. until used. The hippocampi from 10 rats were combined and homogenized using a pulverizer of the Polytron type in 10 volumes of an ice-cooled buffer with the following composition: KCl (11 mM); KH2PO4 (6 mM); NaCl (137 mM); Na2HPO4 (8 mM); HEPES (20 mM); iodoacetamide (5 mM); EDTA (1.5 mM); PMSF (0.1 mM). The pH was adjusted to 7.4 with NaOH. […]
The binding of the compounds of the invention for receptors containing the α7 subunit was measured by competition versus [^3H]-methyllycaconitine ([^3H]-MLA), a radiolabeled tracer which recognizes the α7 receptors (Davies et al., Neuropharmacology 1999, 38, 679-690) according to conventional methods adapted to the format of 96-well plates. The ability of the compounds of the invention to displace the [^3H]-MLA bond on the rat hippocampus membranes was determined in duplicate after incubation for 2 hours at a temperature close to 20° C. […] The non-specific binding was determined in specific wells containing 10 μM of non-radiolabeled MLA. […]

T1 sequence (Q05941 23-502): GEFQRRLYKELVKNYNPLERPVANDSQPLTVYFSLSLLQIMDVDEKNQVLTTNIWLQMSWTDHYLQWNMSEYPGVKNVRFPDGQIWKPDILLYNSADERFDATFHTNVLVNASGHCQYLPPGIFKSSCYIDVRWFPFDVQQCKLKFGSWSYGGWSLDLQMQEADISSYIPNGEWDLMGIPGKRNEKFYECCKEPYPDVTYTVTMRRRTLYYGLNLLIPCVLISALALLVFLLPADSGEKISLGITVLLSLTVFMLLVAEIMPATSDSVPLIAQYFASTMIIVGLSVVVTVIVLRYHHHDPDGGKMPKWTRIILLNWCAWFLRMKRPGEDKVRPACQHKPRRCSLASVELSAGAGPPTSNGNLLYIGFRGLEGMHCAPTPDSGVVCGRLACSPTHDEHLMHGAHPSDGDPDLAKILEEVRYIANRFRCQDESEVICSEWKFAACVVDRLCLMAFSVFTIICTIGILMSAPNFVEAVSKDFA

Row | Compound | Ki [nM]
1 | CCN(CC)CCCNc1nnc(-c2csc3ccccc23)c(=O)[nH]1 [Compound No. 12, 6-(benzothiophen-3-yl)-3-(3-diethylaminopropylamino)-4H-1,2,4-triazin-5-one] | 957
2 | CCN(CC)CCCNc1nnc(-c2cn(-c3ccccc3)c3ccccc23)c(=O)[nH]1 [Compound No. 11, 6-(1-phenyl-indol-3-yl)-3-(3-diethylaminopropylamino)-4H-1,2,4-triazin-5-one] | 737
